# Results taken from patent US5563125A, “5'-deoxy-5'-(substituted)alkylthioribose compounds and their pharmaceutical compositions” (priority 1992, dated 1996).
# Tests used:
# [1] = target: T1, Mouse Liver MTA Phosphorylase (Mus musculus, UniProt Q9CQ65); experiment: Mouse liver MTA phosphorylase substrate/inhibitor assay; type: biochemical
# T1 sequence (Q9CQ65 1-283): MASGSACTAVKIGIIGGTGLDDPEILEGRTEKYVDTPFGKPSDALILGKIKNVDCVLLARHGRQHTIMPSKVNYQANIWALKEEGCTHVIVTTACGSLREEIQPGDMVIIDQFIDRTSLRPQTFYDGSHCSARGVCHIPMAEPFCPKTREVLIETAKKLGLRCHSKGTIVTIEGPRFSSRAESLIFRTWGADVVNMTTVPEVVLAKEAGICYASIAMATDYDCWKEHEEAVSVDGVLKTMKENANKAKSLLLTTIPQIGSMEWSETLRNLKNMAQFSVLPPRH
# Method: ^a MTA phosphorylase activity was assayed as described in Sufrin et
# MALME (human melanoma) = experiment: In vitro evaluation, MALME; type: cell-based; details: medium B, 72 hours
# Method: (§1) In vitro evaluations of the compound 5'-deoxy-5'-(monofluoroethylthio) adenosine (MFETA) were performed using the materials and conditions described in Tables 9 and 10.
# (§2) ^(a) Basal medium = RPMI 1640 + 20 mM HEPES + 2 mM Lglutamine
# (§3) B = 5% FCS + 5% NuSerum IV
# HO (human melanoma) = experiment: In vitro evaluation, HO; type: cell-based; details: medium B, 72 hours
# Method: as §1, §2, §3
# [2] = system: MOLT-4 cells (MTA phosphorylase-containing); experiment: Growth inhibition of MOLT-4 cells; type: cell-based, human; details: Homo sapiens, MOLT-4, 96 h
# Method: (§4) L1210, L5178Y and MOLT-4 cell lines were grown in RPMI 1640 and 10% Nu Serum (Collaborative Research Inc., Lexington, Mass.) and CCRF-CEM cells were grown in 10% Horse Serum (Gibco Laboratories, Grand Island, N.Y.) and maintained as previously described for suspension cultures by Pera et al. in Cancer Res. 46, 1148, 1986. Cell cultures (0.3×10^5 cells/ml) were treated with each compound at 0.1 to 1000 μM to determine the concentration that inhibited growth by 50% (IC50) at 48 hr for the L1210 and L5178Y cells and at 96 hr for the CCRF-CEM and MOLT-4 cells. The incubation times allowed approximately 4 cell doublings in each cell line. All compounds were freshly prepared prior to treatment by dissolving in DMSO and diluting in serum-free media. Cells were counted by electron particle counting (Model XF' Coulter Counter; Coulter Electronics, Hialeah, Fla.).
# (§5) For each compound, the concentrations required to inhibit cell growth by 50% (IC50 values) are shown in Table 7 for two murine leukemic cell lines, L1210 and L5178Y [MTA phosphorylase-deficient and MTA phosphorylase-containing, respectively] and two human leukemic cell lines, CCRF-CEM and MOLT-4 [MTA phosphorylase-deficient and MTA phosphorylase-containing, respectively]. ETA, MFETA, HETA and PTA had lower IC50 values in the L5178Y cells than in the L1210 cells. […] This differential is consistent with the possibility that, in L5178Y cells, MFETA is cleaved by MTA phosphorylase to the growth inhibitory metabolite, 5-monofluoroethylthioribose-1-phosphate (MFETR-1-P).
# [3] = system: MCF7 (human breast carcinoma); experiment: In vitro evaluation, MCF7; type: cell-based; details: MCF7, medium B, 72 hours, solvent DMSO
# Method: as §1
# (§6) (a) Basal medium + RPMI 1640 + 20 mM HEPES;
# (§7) B--5% NuSerum IV + 5% FCS,
# (§8) *Incubation or exposure time is determined by the doubling time of the
# (§9) cell line such that each is exposed to the compound for 3-4 cell
# [4] = system: L1210 cells (MTA phosphorylase-deficient); experiment: Growth inhibition of L1210 cells; type: cell-based, mouse; details: Mus musculus, L1210, 48 h
# Method: as §4, §5
# [5] = system: T. b. brucei LAB 110 EATRO; experiment: In vivo antitrypanosomal activity, LAB EATRO mouse infection model; details: 7 days, miniosmotic pump
# Method: ^a Animals were treated with surgically implanted miniosmotic pumps
# loaded as per manufacturers instructions with MTA, HETA or MFETA suspende
# PANuT (human melanoma) = experiment: In vitro evaluation, PANuT; type: cell-based; details: medium B, 72 hours
# Method: as §1, §2, §3
# [6] = system: A121 (human ovarian carcinoma); experiment: In vitro evaluation, A121; type: cell-based; details: A121, medium B, 72 hours, solvent DMSO
# Method: as §1, §6, §7, §8, §9
# [7] = system: PSN-1 (human pancreatic carcinoma); experiment: In vitro evaluation, PSN-1; type: cell-based; details: PSN1, PSN-1, medium C, 72 hours, solvent DMSO
# Method: as §1, §6, §7, §8, §9
# [8] = system: HT-29 (human colon carcinoma); experiment: In vitro evaluation, HT-29; type: cell-based; details: HT-29, medium B, 96 hours, solvent DMSO
# Method: as §1, §6, §7, §8, §9
# [9] = system: L5178Y cells (MTA phosphorylase-containing); experiment: Growth inhibition of L5178Y cells; type: cell-based, mouse; details: Mus musculus, 48 h
# Method: as §4, §5
# LOX (human melanoma) = experiment: In vitro evaluation, LOX; type: cell-based; details: medium B, 72 hours
# Method: as §1, §2, §3
structure (smiles),measurement,setting,value
"Nc1ncnc2c1ncn2[C@@H]1O[C@H](CSCCF)[C@@H](O)[C@H]1O [MFETA, 5'-deoxy-5'-(monofluoroethylthio)adenosine]",Ki,"[1]; mouse liver MTA phosphorylase, read-out: K1",3.1 µM
same,Substrate (% Control),[1]; substrate activity relative to MTA,64 % Control
same,IC50,MALME (human melanoma),364 ± 13 µM
same,IC50,HO (human melanoma),333 ± 5.9 µM
same,IC50,[2],10 ± 3 µM
same,IC50,[3],337 µM
same,IC50,[4],150 ± 50 µM
same,% Cured,[5]; 10 mg/kg/day,0%
same,MSD (mean survival in days of animals dying of infection),[5]; 10 mg/kg/day,5.0 days
same,Number Cured Total,[5]; 10 mg/kg/day,0/5
same,% Cured,[5]; 25 mg/kg/day,40%
same,MSD (mean survival in days of animals dying of infection),[5]; 25 mg/kg/day,11.6 days
same,Number Cured Total,[5]; 25 mg/kg/day,2/5
same,% Cured,[5]; 50 mg/kg/day,0%
same,MSD (mean survival in days of animals dying of infection),[5]; 50 mg/kg/day,10.6 days
same,Number Cured Total,[5]; 50 mg/kg/day,0/5
same,% Cured,[5]; 100 mg/kg/day,40%
same,MSD (mean survival in days of animals dying of infection),[5]; 100 mg/kg/day,12.0 days
same,Number Cured Total,[5]; 100 mg/kg/day,2/5
same,IC50,PANuT (human melanoma),160 ± 8.1 µM
same,IC50,[6],269 µM
same,IC50,[7],175 µM
same,IC50,[8],259 µM
same,IC50,[9],60 ± 35 µM
same,IC50,LOX (human melanoma),268 ± 13 µM
